Assay results: patent publication US20230085307A1, “PYRIDAZINONE COMPOUND AND HERBICIDE” (NISSAN CHEMICAL CORPORATION, priority 2019, published 2023)

Columns and labels:
[1] = test system: green foxtail; assay: Test Example 5: herbicidal effect by foliage application, plastic box (Table 20, symbol G); format: in vivo, green foxtail (Setaria viridis); conditions: amount of applied herbicide 320 g/ha; foliage application after 14-day growth; evaluated three weeks after application
Summary of the method: (§1)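 Plants sown in sterilized diluvial soil and grown 14 days in a greenhouse at 25° C to 30° C, then sprayed on the foliage with the compound's emulsion diluted in water to a predetermined herbicide amount. Injury to weeds and crops scored three weeks after application on a visual rating scale.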

[2] = test system: rice flat sedge; assay: Test Example 3: herbicidal effect by foliage application, Wagner pot (Table 18, symbol E); format: in vivo, rice flat sedge (Cyperus iria); conditions: 320 g/ha
Summary of the method: (§2)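 Plants were sown in alluvial soil held under 0.1–0.5 cm standing water and grown 14 days in a greenhouse at 25–30 °C. An emulsifiable formulation, water-diluted to the set dose, was then sprayed onto the foliage, and effects were scored three weeks later using previously defined criteria.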

[3] = test system: green foxtail; assay: Test Example 4: herbicidal effect by soil treatment (Table 19, symbol G); format: in vivo, green foxtail (Setaria viridis); conditions: amount of applied herbicide 320 g/ha
Summary of the method: (§3)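 Three weeks of greenhouse growth at 25° C. to 30° C. followed a uniform surface spray of water-diluted emulsion at a predetermined herbicide amount. Seeds had been sown beforehand under about 1.5 cm of sterilized diluvial soil. Grading followed criteria set out in an earlier test.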

[4] = test system: blackgrass; assay: Test Example 5: herbicidal effect by foliage application, plastic box (Table 20, symbol J); format: in vivo, blackgrass (Alopecurus myosuroides); conditions: amount of applied herbicide 320 g/ha; foliage application after 14-day growth; evaluated three weeks after application
Summary of the method: as §1

[5] = test system: lambsquarters; assay: Test Example 5: herbicidal effect by foliage application, plastic box (Table 20, symbol O); format: in vivo, lambsquarters (Chenopodium album); conditions: amount of applied herbicide 320 g/ha; foliage application after 14-day growth; evaluated three weeks after application
Summary of the method: as §1

[6] = test system: Italian ryegrass; assay: Test Example 4: herbicidal effect by soil treatment (Table 19, symbol K); format: in vivo, Italian ryegrass (Lolium multiflorum); conditions: amount of applied herbicide 320 g/ha
Summary of the method: as §3

[7] = test system: barnyard grass; assay: Test Example 5: herbicidal effect by foliage application, plastic box (Table 20, symbol H); format: in vivo, barnyard grass (Echinochloa crus-galli); conditions: amount of applied herbicide 320 g/ha; foliage application after 14-day growth; evaluated three weeks after application
Summary of the method: as §1

[8] = test system: redroot pigweed; assay: Test Example 4: herbicidal effect by soil treatment (Table 19, symbol N); format: in vivo, redroot pigweed (Amaranthus retroflexus); conditions: amount of applied herbicide 320 g/ha
Summary of the method: as §3

[9] = test system: velvetleaf; assay: Test Example 5: herbicidal effect by foliage application, plastic box (Table 20, symbol M); format: in vivo, velvetleaf (Abutilon theophrasti); conditions: amount of applied herbicide 320 g/ha; foliage application after 14-day growth; evaluated three weeks after application
Summary of the method: as §1

[10] = test system: redroot pigweed; assay: Test Example 5: herbicidal effect by foliage application, plastic box (Table 20, symbol N); format: in vivo, redroot pigweed (Amaranthus retroflexus); conditions: amount of applied herbicide 320 g/ha; foliage application after 14-day growth; evaluated three weeks after application
Summary of the method: as §1

[11] = test system: blackgrass; assay: Test Example 4: herbicidal effect by soil treatment (Table 19, symbol J); format: in vivo, blackgrass (Alopecurus myosuroides); conditions: amount of applied herbicide 320 g/ha
Summary of the method: as §3

[12] = test system: lambsquarters; assay: Test Example 4: herbicidal effect by soil treatment (Table 19, symbol O); format: in vivo, lambsquarters (Chenopodium album); conditions: amount of applied herbicide 320 g/ha
Summary of the method: as §3

[13] = test system: barnyard grass; assay: Test Example 4: herbicidal effect by soil treatment (Table 19, symbol H); format: in vivo, barnyard grass (Echinochloa crus-galli); conditions: amount of applied herbicide 320 g/ha
Summary of the method: as §3

[14] = test system: southern crabgrass; assay: Test Example 4: herbicidal effect by soil treatment (Table 19, symbol F); format: in vivo, southern crabgrass (Digitaria ciliaris); conditions: amount of applied herbicide 320 g/ha
Summary of the method: as §3

[15] = test system: persian speedwell; assay: Test Example 4: herbicidal effect by soil treatment (Table 19, symbol R); format: in vivo, Persian speedwell (Veronica persica); conditions: amount of applied herbicide 320 g/ha
Summary of the method: as §3

[16] = test system: velvetleaf; assay: Test Example 4: herbicidal effect by soil treatment (Table 19, symbol M); format: in vivo, velvetleaf (Abutilon theophrasti); conditions: amount of applied herbicide 320 g/ha
Summary of the method: as §3

[17] = test system: southern crabgrass; assay: Test Example 5: herbicidal effect by foliage application, plastic box (Table 20, symbol F); format: in vivo, southern crabgrass (Digitaria ciliaris); conditions: amount of applied herbicide 320 g/ha; foliage application after 14-day growth; evaluated three weeks after application
Summary of the method: as §1

[18] = test system: wild oat; assay: Test Example 4: herbicidal effect by soil treatment (Table 19, symbol I); format: in vivo, wild oat (Avena fatua); conditions: amount of applied herbicide 320 g/ha
Summary of the method: as §3

[19] = test system: persian speedwell; assay: Test Example 5: herbicidal effect by foliage application, plastic box (Table 20, symbol R); format: in vivo, Persian speedwell (Veronica persica); conditions: amount of applied herbicide 320 g/ha; foliage application after 14-day growth; evaluated three weeks after application
Summary of the method: as §1

[20] = test system: chickweed; assay: Test Example 5: herbicidal effect by foliage application, plastic box (Table 20, symbol P); format: in vivo, common chickweed (Stellaria media); conditions: amount of applied herbicide 320 g/ha; foliage application after 14-day growth; evaluated three weeks after application
Summary of the method: as §1

[21] = test system: Chinese sprangletop; assay: Test Example 3: herbicidal effect by foliage application, Wagner pot (Table 18, symbol D); format: in vivo, chinese sprangletop (Leptochloa chinensis); conditions: 320 g/ha
Summary of the method: as §2

[22] = test system: chickweed; assay: Test Example 4: herbicidal effect by soil treatment (Table 19, symbol P); format: in vivo, common chickweed (Stellaria media); conditions: amount of applied herbicide 320 g/ha
Summary of the method: as §3

[23] = test system: wild oat; assay: Test Example 5: herbicidal effect by foliage application, plastic box (Table 20, symbol I); format: in vivo, wild oat (Avena fatua); conditions: amount of applied herbicide 320 g/ha; foliage application after 14-day growth; evaluated three weeks after application
Summary of the method: as §1

[24] = test system: barnyard grass; assay: Test Example 3: herbicidal effect by foliage application, Wagner pot (Table 18, symbol H); format: in vivo, barnyard grass (Echinochloa crus-galli); conditions: 320 g/ha
Summary of the method: as §2

[25] = test system: windgrass; assay: Test Example 5: herbicidal effect by foliage application, plastic box (Table 20, symbol L); format: in vivo, windgrass (Apera spica-venti); conditions: amount of applied herbicide 320 g/ha; foliage application after 14-day growth; evaluated three weeks after application
Summary of the method: as §1

[26] = test system: windgrass; assay: Test Example 4: herbicidal effect by soil treatment (Table 19, symbol L); format: in vivo, windgrass (Apera spica-venti); conditions: amount of applied herbicide 320 g/ha
Summary of the method: as §3

[27] = test system: Italian ryegrass; assay: Test Example 5: herbicidal effect by foliage application, plastic box (Table 20, symbol K); format: in vivo, Italian ryegrass (Lolium multiflorum); conditions: amount of applied herbicide 320 g/ha; foliage application after 14-day growth; evaluated three weeks after application
Summary of the method: as §1

CSc1ccc(-c2sc3c(Cl)cccc3c2-c2c(O)c(C)nn(C)c2=O)cc1 [4-088]
Herbicidal effect by foliage application, G: green foxtail [1]: 2 (Herbicidal rate of 20% or more and less than 40%) | herbicidal effect on rice flat sedge (E) [2]: 5 (Herbicidal rate of 90% or more (almost completely withered)) | Herbicidal effect by soil treatment, G: green foxtail [3]: 0 (Herbicidal rate of 5% or less (almost no effect)) | Herbicidal effect by foliage application, J: blackgrass [4]: 2 (Herbicidal rate of 20% or more and less than 40%) | Herbicidal effect by foliage application, O: lambsquarters [5]: 5 (Herbicidal rate of 90% or more (almost completely withered)) | Herbicidal effect by soil treatment, K: Italian ryegrass [6]: 3 (Herbicidal rate of 40% or more and less than 70%) | Herbicidal effect by foliage application, H: barnyard grass [7]: 3 (Herbicidal rate of 40% or more and less than 70%) | Herbicidal effect by soil treatment, N: redroot pigweed [8]: 5 (Herbicidal rate of 90% or more (almost completely withered)) | Herbicidal effect by foliage application, M: velvetleaf [9]: 5 (Herbicidal rate of 90% or more (almost completely withered)) | Herbicidal effect by foliage application, N: redroot pigweed [10]: 5 (Herbicidal rate of 90% or more (almost completely withered)) | Herbicidal effect by soil treatment, J: blackgrass [11]: 0 (Herbicidal rate of 5% or less (almost no effect)) | Herbicidal effect by soil treatment, O: lambsquarters [12]: 4 (Herbicidal rate of 70% or more and less than 90%) | Herbicidal effect by soil treatment, H: barnyard grass [13]: 0 (Herbicidal rate of 5% or less (almost no effect)) | Herbicidal effect by soil treatment, F: southern crabgrass [14]: 0 (Herbicidal rate of 5% or less (almost no effect)) | Herbicidal effect by soil treatment, R: persian speedwell [15]: 3 (Herbicidal rate of 40% or more and less than 70%) | Herbicidal effect by soil treatment, M: velvetleaf [16]: 0 (Herbicidal rate of 5% or less (almost no effect)) | Herbicidal effect by foliage application, F: southern crabgrass [17]: 0 (Herbicidal rate of 5% or less (almost no effect)) | Herbicidal effect by soil treatment, I: wild oat [18]: 0 (Herbicidal rate of 5% or less (almost no effect)) | Herbicidal effect by foliage application, R: persian speedwell [19]: 5 (Herbicidal rate of 90% or more (almost completely withered)) | Herbicidal effect by foliage application, P: chickweed [20]: 5 (Herbicidal rate of 90% or more (almost completely withered)) | herbicidal effect on Chinese sprangletop (D) [21]: 3 (Herbicidal rate of 40% or more and less than 70%) | Herbicidal effect by soil treatment, P: chickweed [22]: 0 (Herbicidal rate of 5% or less (almost no effect)) | Herbicidal effect by foliage application, I: wild oat [23]: 4 (Herbicidal rate of 70% or more and less than 90%) | herbicidal effect on barnyard grass (H) [24]: 5 (Herbicidal rate of 90% or more (almost completely withered)) | Herbicidal effect by foliage application, L: windgrass [25]: 5 (Herbicidal rate of 90% or more (almost completely withered)) | Herbicidal effect by soil treatment, L: windgrass [26]: 0 (Herbicidal rate of 5% or less (almost no effect)) | Herbicidal effect by foliage application, K: Italian ryegrass [27]: 4 (Herbicidal rate of 70% or more and less than 90%)
